What was measured:
[1] = test system: Plasmodium falciparum; assay: Antimalarial activity against Plasmodium falciparum W2; type: functional, organism-based
[2] = test system: CAKI-1; assay: Antiproliferative activity against human CAKI1 cells after 48 hrs; type: functional; conditions: CAKI-1, 48 h; for CC50: read-out: LC50 (the source's name)
[3] = test system: Plasmodium falciparum; assay: Antimalarial activity against Plasmodium falciparum TM91C235; type: functional, organism-based
[4] = test system: Plasmodium falciparum; assay: Antimalarial activity against Plasmodium falciparum D6; type: functional, organism-based
[5] = test system: NCI; assay: Growth inhibition of human NCI DTP 60 cells; type: functional
[6] = test system: LOX IMVI; assay: Antiproliferative activity against human LOX IMVI cells after 48 hrs; type: functional
[7] = test system: ACHN; assay: Antiproliferative activity against human ACHN cells after 48 hrs; type: functional
[8] = test system: 786-0; assay: Antiproliferative activity against human 786-0 cells after 48 hrs; type: functional; conditions: for CC50: read-out: LC50 (the source's name)
[9] = test system: UO-31; assay: Antiproliferative activity against human UO31 cells after 48 hrs; type: functional
[10] = test system: HOP-92; assay: Antiproliferative activity against human HOP92 cells after 48 hrs; type: functional
[11] = test system: HL-60; assay: Antiproliferative activity against human HL60 cells after 48 hrs; type: functional; conditions: for CC50: read-out: LC50 (the source's name)
[12] = test system: IGROV-1; assay: Antiproliferative activity against human IGROV1 cells after 48 hrs; type: functional; conditions: IGROV-1, 48 h
[13] = test system: DU-145; assay: Antiproliferative activity against human DU145 cells after 48 hrs; type: functional; conditions: DU-145, 48 h
[14] = test system: PC-3; assay: Antiproliferative activity against human PC3 cells after 48 hrs; type: functional; conditions: PC-3, 48 h
[15] = test system: CCRF-CEM; assay: Antiproliferative activity against human CCRF-CEM cells after 48 hrs; type: functional
[16] = test system: NCI-H522; assay: Antiproliferative activity against human NCI-H522 cells after 48 hrs; type: functional; conditions: NCI-H522, 48 h
[17] = test system: NCI-H460; assay: Antiproliferative activity against human NCI-H460 cells after 48 hrs; type: functional; conditions: NCI-H460, 48 h; for CC50: read-out: LC50 (the source's name)
[18] = test system: A549; assay: Antiproliferative activity against human A549 cells after 48 hrs; type: functional; conditions: A549, 48 h
[19] = test system: MOLT-4; assay: Antiproliferative activity against human MOLT4 cells after 48 hrs; type: functional; conditions: MOLT-4, 48 h
[20] = Antiproliferative activity against human […] cells after 48 hrs; type: functional
[21] = test system: SF-295; assay: Antiproliferative activity against human SF295 cells after 48 hrs; type: functional; conditions: SF-295, 48 h
[22] = test system: MDA-MB-231; assay: Antiproliferative activity against human MDA-MB-231 cells after 48 hrs; type: functional; conditions: MDA-MB-231, 48 h
[23] = test system: A498; assay: Antiproliferative activity against human A498 cells after 48 hrs; type: functional; conditions: A498, 48 h
[24] = test system: MDA-MB-435; assay: Antiproliferative activity against human MDA-MB-435 cells after 48 hrs; type: functional; conditions: Homo sapiens, MDA-MB-435, 48 h
[25] = test system: SF-539; assay: Antiproliferative activity against human SF539 cells after 48 hrs; type: functional; conditions: SF-539, 48 h
[26] = test system: NCI-H23; assay: Antiproliferative activity against human NCI-H23 cells after 48 hrs; type: functional; conditions: NCI-H23, 48 h
[27] = test system: SN12C; assay: Antiproliferative activity against human SN12C cells after 48 hrs; type: functional
[28] = read-out: LC50 (the source's name)
[29] = Plasmodium falciparum, TM91C235

CC(=O)O[C@H]1C[C@H]2[C@@H](CC[C@@H]3CC4(CC[C@@]32C)OOC2(CCC(C)CC2)OO4)[C@@H]2CC[C@H]([C@H](C)CCC(=O)NCCN(C)C)[C@@]12C (stereo in doubt; 17)
IC50 [1]: 136 nM | IC90 [1]: 155 nM | GI50 [2]: 602 nM | TGI [2]: 1400 nM | CC50 [2]: 3.25 µM | IC50 [3]: 136 nM | IC90 [3]: 153 nM | IC50 [4]: 104 nM | IC90 [4]: 148 nM | GI50 ([5]; Homo sapiens, NCI): < 5 nM | LC50 (concentration killing 50% of cells) [6]: 56.4 nM | TGI [6]: 5.18 nM | GI50 [7]: 439 nM | LC50 (concentration killing 50% of cells) [7]: 2300 nM | TGI [7]: 1050 nM | GI50 [8]: 81.3 nM | TGI [8]: 149 nM

CC1CCC2(CC1)OOC1(CC[C@@]3(C)[C@H](CC[C@@H]4[C@@H]3C[C@H](O)[C@]3(C)[C@@H]([C@H](C)CCC(=O)NCCN(C)C)CC[C@@H]43)C1)OO2 (stereo in doubt; 17a)
GI50 [9]: 165 nM | LC50 [9]: 613 nM | TGI [9]: 318 nM | GI50 [10]: 171 nM | LC50 (concentration killing 50% of cells) [10]: 0.794 µM | TGI [10]: 368 nM | GI50 [5]: 130 nM | GI50 [11]: 264 nM | TGI [11]: 477 nM | CC50 [11]: 863 nM | GI50 [6]: 180 nM | LC50 (concentration killing 50% of cells) [6]: 689 nM | TGI [6]: 352 nM | GI50 [12]: 160 nM | LC50 (concentration killing 50% of cells) [12]: 712 nM | TGI [12]: 338 nM | GI50 [8]: 335 nM | TGI [8]: 1050 nM | CC50 [8]: 3.65 µM | GI50 [13]: 641 nM | LC50 (concentration killing 50% of cells) [13]: 4.49 µM | TGI [13]: 1910 nM | GI50 [14]: 367 nM | TGI [14]: 1620 nM | CC50 [14, 28]: 4.45 µM | GI50 [15]: 186 nM | LC50 (concentration killing 50% of cells) [15]: 792 nM | TGI [15]: 384 nM

CC(=O)O[C@H]1C[C@H]2[C@@H]([C@H](OC(C)=O)C[C@@H]3CC4(CC[C@@]32C)OOC2(CCCCC2)OO4)[C@@H]2CC[C@H]([C@H](C)CCC(N)=O)[C@@]12C
GI50 [2]: 200 nM | TGI [2]: 1120 nM | CC50 [2]: 3.59 µM | GI50 ([9]; Homo sapiens, UO-31, 48 h): < 10 nM | LC50 ([9]; Homo sapiens, UO-31, 48 h): 40 nM | TGI ([9]; Homo sapiens, UO-31, 48 h): 14 nM | GI50 ([5]; Homo sapiens, NCI): < 10 nM | GI50 [16]: 230 nM | TGI [16]: 770 nM | CC50 [16, 28]: 3.02 µM | GI50 [12]: 32 nM | LC50 (concentration killing 50% of cells) [12]: 430 nM | TGI [12]: 120 nM | GI50 ([8]; Homo sapiens, 786-0, 48 h): 783 nM | TGI ([8]; Homo sapiens, 786-0, 48 h): 2090 nM | CC50 ([8]; Homo sapiens, 786-0, 48 h): 4.57 µM | GI50 [17]: 550 nM | TGI [17]: 2070 nM | CC50 [17]: 5.28 µM

CC(=O)O[C@H]1C[C@H]2[C@@H]([C@H](OC(C)=O)C[C@@H]3CC4(CC[C@@]32C)OOC2(CCC(C)CC2)OO4)[C@@H]2CC[C@H]([C@H](C)CCC(=O)Nc3ccccc3)[C@@]12C (stereo in doubt; 21)
IC50 [1]: 23.1 nM | IC90 [1]: 54.6 nM | GI50 [18]: 255 nM | TGI [18]: 664 nM | GI50 ([9]; Homo sapiens, UO-31, 48 h): 222 nM | LC50 ([9]; Homo sapiens, UO-31, 48 h): > 10000 nM | TGI ([9]; Homo sapiens, UO-31, 48 h): 487 nM | IC50 [3]: 27.2 nM | IC90 [3]: 69.7 nM | GI50 ([10]; Homo sapiens, HOP-92, 48 h): 266 nM | LC50 (concentration killing 50% of cells) ([10]; Homo sapiens, HOP-92, 48 h): 8.84 µM | TGI ([10]; Homo sapiens, HOP-92, 48 h): 766 nM | IC50 [4]: 19.8 nM | IC90 [4]: 29.2 nM | GI50 ([5]; Homo sapiens, NCI): 180 nM | GI50 [6]: 181 nM | LC50 (concentration killing 50% of cells) [6]: 758 nM | TGI [6]: 370 nM

CCCNC(=O)CC[C@@H](C)[C@H]1CC[C@H]2[C@@H]3CC[C@@H]4CC5(CC[C@]4(C)[C@H]3C[C@H](OC(C)=O)[C@]12C)OOC1(CCC(C)CC1)OO5 (stereo in doubt; 15)
IC50 [1]: 33.8 nM | IC90 [1]: 53.7 nM | GI50 [2]: 62.2 nM | TGI [2]: 163 nM | CC50 [2]: 0.429 µM | GI50 ([9]; Homo sapiens, UO-31, 48 h): 122 nM | TGI ([9]; Homo sapiens, UO-31, 48 h): 329 nM | IC50 [3]: 34.1 nM | IC90 [3]: 50.7 nM | GI50 ([10]; Homo sapiens, HOP-92, 48 h): 134 nM | LC50 (concentration killing 50% of cells) ([10]; Homo sapiens, HOP-92, 48 h): 4.53 µM | TGI ([10]; Homo sapiens, HOP-92, 48 h): 873 nM | IC50 [4]: 29.3 nM | IC90 [4]: 39.3 nM | GI50 ([5]; Homo sapiens, NCI): 62 nM | GI50 ([6]; Homo sapiens, LOX IMVI, 48 h): 116 nM | LC50 (concentration killing 50% of cells) ([6]; Homo sapiens, LOX IMVI, 48 h): 1680 nM | TGI ([6]; Homo sapiens, LOX IMVI, 48 h): 391 nM | GI50 [13]: 663 nM | LC50 (concentration killing 50% of cells) [13]: 3.91 µM | TGI [13]: 1610 nM

CC(=O)O[C@H]1C[C@H]2[C@@H](CC[C@@H]3CC4(CC[C@@]32C)OOC2(CCCCC2)OO4)[C@@H]2CC[C@H]([C@H](C)CCC(=O)NCCN(C)C)[C@@]12C
IC50 ([1]; Plasmodium falciparum, W2): 105 nM | IC90 ([1]; Plasmodium falciparum, W2): 276 nM | IC50 [3, 29]: 221 nM | IC50 ([4]; Plasmodium falciparum, D6): 221 nM | GI50 ([5]; Homo sapiens, NCI): < 10 nM | GI50 ([8]; Homo sapiens, 786-0, 48 h): 159 nM | TGI ([8]; Homo sapiens, 786-0, 48 h): 298 nM | CC50 ([8]; Homo sapiens, 786-0, 48 h): 0.559 µM | GI50 [19]: < 10 nM | TGI [19]: > 100 µM | GI50 [17]: 536 nM | TGI [17]: 1900 nM | CC50 [17]: 4.7 µM

CCCNC(=O)CC[C@@H](C)[C@H]1CC[C@H]2[C@@H]3CC[C@@H]4CC5(CC[C@]4(C)[C@H]3C[C@H](OC(C)=O)[C@]12C)OOC1(CCCCC1)OO5
GI50 [20]: 110 nM | TGI [20]: 650 nM | CC50 [20, 28]: 6.82 µM | IC50 ([1]; Plasmodium falciparum, W2): 40.8 nM | IC90 ([1]; Plasmodium falciparum, W2): 111 nM | IC50 ([4]; Plasmodium falciparum, D6): 74.3 nM | IC90 ([4]; Plasmodium falciparum, D6): 115 nM | GI50 ([5]; Homo sapiens, NCI): 110 nM

CC(=O)O[C@H]1C[C@H]2[C@@H](CC[C@@H]3CC4(CC[C@@]32C)OOC2(CCC(C)CC2)OO4)[C@@H]2CC[C@H]([C@H](C)CCC(N)=O)[C@@]12C (stereo in doubt; 12)
IC90 [1]: 29.7 nM | IC50 ([1]; Plasmodium falciparum, W2): 18.8 nM | GI50 [21]: 524 nM | TGI [21]: 1690 nM | CC50 [21, 28]: 3.46 µM | GI50 [22]: 821 nM | TGI [22]: 1760 nM | CC50 [22, 28]: 3.77 µM | GI50 [23]: 923 nM | TGI [23]: 1920 nM | CC50 [23, 28]: 4 µM | IC50 [3, 29]: 15.7 nM | IC90 [3, 29]: 30.8 nM | GI50 [24]: 951 nM | TGI [24]: 1940 nM | CC50 [24, 28]: 3.96 µM | IC50 ([4]; Plasmodium falciparum, D6): 13.6 nM | IC90 ([4]; Plasmodium falciparum, D6): 19 nM | GI50 ([5]; Homo sapiens, NCI): 110 nM | GI50 ([11]; Homo sapiens, HL-60, 48 h): 769 nM | TGI ([11]; Homo sapiens, HL-60, 48 h): 1840 nM | CC50 ([11]; Homo sapiens, HL-60, 48 h): 4410 nM | GI50 ([6]; Homo sapiens, LOX IMVI, 48 h): 111 nM | TGI ([6]; Homo sapiens, LOX IMVI, 48 h): 259 nM | TGI [25]: 1840 nM | CC50 [25, 28]: 3.61 µM | GI50 [13]: 699 nM | LC50 (concentration killing 50% of cells) [13]: 3.34 µM | TGI [13]: 1730 nM | GI50 [26]: 660 nM | LC50 (concentration killing 50% of cells) [26]: 3.39 µM | TGI [26]: 1710 nM | GI50 [27]: 833 nM | LC50 (concentration killing 50% of cells) [27]: 3000 nM | TGI [27]: 1580 nM

From ChEMBL document CHEMBL1148828, “Deoxycholic acid-derived tetraoxane antimalarials and antiproliferatives(1)” (J Med Chem, 2007)
